Measured values from EP4186918A1 (Université de Rennes, priority 2021, dated 2023).
“Also recorded” adds a separate entry of the source.

Columns and labels:
[1] = Sedimentation after polymerization (aggregative character); format: physicochemical; settings: 800 µM peptide; sedimentable peptide after polymerization as % of total concentration
Method: (§1) After thawing, a pre-dilution in milli Q H2O filtered through 0.2 µm was carried out in order to obtain a solution at a concentration close to the working concentration, greater than 1.25 times. This stock solution was left to incubate for 1 hour in a water bath at 25°C, and was then assayed spectrophotometrically and adjusted to the final working concentration of 1.25 times. The polymerization was initiated by adding 1/4 of the volume of 5X fibrillation buffer (50 mM MOPS, 750 mM NaCl, pH = 7.2) for a final concentration of 1X fibrillation buffer (10 mM MOPS, 150 mM NaCl, PH = 7.2). The samples were left to incubate for 1.5-2 hours at 25°C in a water bath. The study of the polymerization by fluorimetry was carried out under the same conditions, except that the 5X polymerization buffer was supplemented with Thioflavin T (ThT) at 100 µM in order to be able to observe the fluorescence. • (a) Determination of the Aggregative Character of the Peptides. […] The concentration of the supernatant was determined using the Beer-Lambert law A = ε x 1 x C; ε (peptides) = 1450 M^-1cm^-1. […] The fluorescence of the sample was then measured immediately after dilution by recording a fluorescence spectrum (470 nm to 600 nm) at an excitation wavelength of 450 nm (Perkin Elmer LS 55, PM 750, slit10).

[2] = Thioflavin T fluorescence after polymerization (amyloidogenic character); format: physicochemical; settings: 800 µM peptide; ThT fluorescence normalized to 1p = 100%
Method: as §1

VQIVYK (PHF6) = experiment: Polymerization kinetics of 1p with selected peptides, ThT spectrofluorimetry; format: biochemical, human
Method: (§2) After thawing, a pre-dilution of the peptides of interest in sterile water was carried out in order to obtain, for each peptide, a solution at a concentration close to the working concentration. The peptides were then left to incubate at 4°C overnight. On the day of the experiment, the peptide solutions were sonicated for 10 minutes, left to stand for one hour at room temperature, sonicated again for 10 minutes and assayed spectrophotometrically at 280 nm (ε = 1450 M^-1cm^-1). The UV spectra were previously normalized to 0 at 300 nm. The solutions were prepared at concentrations of peptides 1/4 above that desired in the end. The polymerization of VQIVYK was initiated by adding 1/4 of the volume of fibrillation buffer 5X for a final concentration of fibrillation buffer 1X (10 mM MOPS, 150 mM NaCl, pH = 7.2).
The analyses were carried out on a spectrofluorometer (LS 55 from Perkin Elmer) fitted with a 4-cell rack. Black quartz cells (0.2x1.0 cm) were used. Excitation and emission wavelengths were 450 nm and 480 nm, respectively, and the sensitivity (Photomultiplier "PM") was set at 800 V. The size of the slits was varied from 3 nm to 6 nm. Normalization of each kinetics was performed with respect to the position of the cell on the rack.
The results were first smoothed over 10 points with the "smooth" option of the KaleidaGraph software. After normalization with respect to the position of the cells in the rack, each start of kinetics was adjusted to 0 before the addition of the fibrillation buffer. Finally, the results of each kinetics were normalized relative to the fluorescence intensity of the 1p control after 100 minutes of polymerization considered to be 100%.

[3] = Garnier-Delamarche representation combining sedimentation and ThT fluorescence; format: physicochemical; settings: from sedimentation and ThT fluorescence
Method: as §1, with “slit10). […]” for “slit10).”

[4] = Polymerization kinetics of selected peptide alone, ThT spectrofluorimetry; format: physicochemical; settings: 310 µM, ThT fluorescence
Method: as §2
The analyses were carried out on a spectrofluorometer (LS 55 from Perkin Elmer) fitted with a 4-cell rack. Black quartz cells (0.2x1.0 cm) were used. […]
The results were first smoothed over 10 points with the "smooth" option of the KaleidaGraph software. […] Finally, the results of each kinetics were normalized relative to the fluorescence intensity of the 1p control after 100 minutes of polymerization considered to be 100%.

[5] = Critical Assembly Concentration (CCa) by sedimentation; format: physicochemical; settings: batch of VQIVYK used in the study; fibrillation buffer 1X
Method: The polymerization of VQIVYK was initiated by mixing the VQIVYK peptide (at various concentrations, 52 µM to 344 µM) with 1/4 of its volume in fibrillation buffer 5X. Once polymerized, the samples were sedimented at 16,900 g for 15 minutes. The concentration of free peptide was measured by assay nanodrop 800. The concentration of polymerized peptide was thus determined using the following the relation: [1p]pellet = [1p]initial −[1p]supernatant [formula]

Ac-YQIVVK-NH2 [6tp, YQIVVK]
% sedimentation [1]: 0%
% fluorescence [2]: 1.3%
category of polymerization kinetics of 1p in presence of peptide (VQIVYK (PHF6); [1p] = 155 µM, [selected peptide] = 310 µM): slow compared to 1p alone and which have a lower fluorescence intensity
effect on polymerization of 1p (VQIVYK (PHF6); [1p] = 155 µM, [selected peptide] = 310 µM, thresholds 50% rate, 100% fluorescence intensity): clearly inhibited; also recorded: marked inhibitory effect
classification of inhibitory effect (3 categories) (VQIVYK (PHF6); inhibition of PHF6 aggregation): with a strong inhibitory effect
persistence of inhibitory effect (VQIVYK (PHF6); polymerization followed for 15 hours): the inhibitory effect persisted
amyloidogenic and aggregative character [3]: weakly amyloidogenic and weakly aggregative
polymerization of peptide alone [4]: do not polymerize on their own

Ac-VQIVYK-NH2 [1p, VQIVYK]
% sedimentation [1]: 94%
% fluorescence [2]: 100%
Critical Assembly Concentration (CCa) [5]: 32 µM
amyloidogenic and aggregative character [3]: strong amyloidogenic and self-aggregative potential
